In assay [1] the test system is K562. The assay can be described thus: Induction of cell differentiation in human K562 cells assessed as upregulation of CD14 at 10 uM after 72 hrs by flow cytometry. The class given is functional, cell-based. (In general: In flow cytometry, cells or beads pass a laser one at a time.)
Assay [2] in a line: Induction of cell differentiation in human U937 cells assessed as upregulation of CD14 at 10 uM after 72 hrs by flow cytometry. The settings on record: U-937. The class given is functional, cell-based.
For assay [3], the system named is K562. Description: Induction of phagocytosis in human K562 cells at 10 uM incubated for 4 to 6 days followed by fluorescent latex beads addition measured after 2 hrs by flow cytometry. The class given is functional, cell-based.
Assay [4] has as its system U-937. The assay can be described thus: Induction of phagocytosis in human U937 cells at 10 uM measured using fluorescent latex beads after 2 hrs by flow cytometry. The class given is functional, cell-based.
In assay [5] the test system is U-937. Description: Induction of phagocytosis in human U937 cells at 6.25 to 12.5 ug/ml measured using fluorescent latex beads after 2 hrs by flow cytometry relative to control. The assay is classed as functional.
Assay [6] is described as follows: Cytotoxicity against human U937 cells assessed as growth inhibition after 48 hrs by MTT assay. The class given is functional, cell-based. Conditions: U-937, 48 h.
Assay [7] has as its system U-937. Description: Induction of apoptosis in human U937 cells assessed as fragmented chromosomal DNA at 6.25 to 50 ug/ml after 12 to 48 hrs by agarose gel electrophoresis. The class given is functional, cell-based.
The subject of assay [8] is Jurkat. Description: Induction of apoptosis in human Jurkat T cells assessed as PARP degradation at 50 ug/ml after 24 hrs by Western blot analysis. The class given is functional, cell-based. A general note: In western blotting, separated proteins are transferred to a membrane and probed.
Assay [9] in a line: Induction of cell differentiation in human U937 cells assessed as upregulation of CD68 at 12.5 ug/ml after 72 hrs by flow cytometry (reference value: 5.9%). The class given is functional, cell-based. The settings on record: U-937.
The nature of assay [10]: Induction of cell differentiation in human U937 cells assessed as upregulation of CD14 at 6.25 ug/ml after 72 hrs by flow cytometry (reference value: 4.3%). The settings on record: U-937. The class given is functional, cell-based.
Assay [11] can be described thus: Induction of cell differentiation in human U937 cells assessed as upregulation of CD68 at 6.25 ug/ml after 72 hrs by flow cytometry (reference value: 5.9%). The assay is classed as functional, cell-based. The settings on record: U-937.
Assay [12] concerns Jurkat. The assay can be described thus: Induction of apoptosis in human Jurkat T cells assessed as fragmented chromosomal DNA at 6.25 to 50 ug/ml after 12 to 48 hrs by agarose gel electrophoresis. The assay is classed as functional, cell-based.
Assay [13] can be described thus: Cell cycle arrest in human Jurkat T cells assessed as accumulation at sub G1 phase at 12.5 ug/ml after 24 hrs by propidium iodide staining based flow cytometry (reference value: 0.9%). The class given is functional.
A short description of assay [14]: Cytotoxicity against human Jurkat T cells assessed as growth inhibition after 24 hrs by MTT assay. The assay is classed as functional, cell-based. (In general: Tetrazolium assays rely on reduction of a dye to a coloured formazan, in cell work by metabolically active cells.)
Assay [15] concerns U-937. Description: Induction of cell death in human U937 at 12.5 to 25 ug/ml cells after 24 hrs. The assay is classed as functional, cell-based.
Assay [16] has as its system U-937. The assay can be described thus: Induction of apoptosis in human U937 cells assessed as PARP degradation at 50 ug/ml after 24 hrs by Western blot analysis. The class given is functional, cell-based.
Assay [17] can be described thus: Cytotoxicity against human Jurkat T cells assessed as growth inhibition after 48 hrs by MTT assay. The assay is classed as functional, cell-based.
In assay [18] the test system is Jurkat. The assay can be described thus: Induction of apoptosis in human Jurkat T cells assessed as procaspase 3 degradation at 6.25 to 50 ug/ml after 24 hrs by Western blot analysis. The class given is functional, cell-based.
The nature of assay [19]: Cell cycle arrest in human Jurkat T cells assessed as accumulation at sub G1 phase at 25 ug/ml after 24 hrs by propidium iodide staining based flow cytometry (reference value: 0.9%). The class given is functional.
Assay [20] deals with U-937. The assay can be described thus: Induction of apoptosis in human U937 cells assessed as procaspase 3 degradation at 6.25 to 50 ug/ml after 24 hrs by Western blot analysis. The class given is functional, cell-based.
Assay [21] relates to K562. The assay can be described thus: Cell cycle arrest in human K562 cells assessed as accumulation at sub G1 phase at 50 to 100 ug/ml after 48 hrs by propidium iodide staining based flow cytometry. The assay is classed as functional.
Assay [22] deals with K562. Description: Cytotoxicity against human K562 CML cells assessed as growth inhibition treated with high doses of compound after 48 to 72 hrs by MTT assay. The assay is classed as functional, cell-based.
In assay [23] the test system is K562. The assay can be described thus: Induction of cell differentiation in human K562 cells assessed as upregulation of CD14 at 12.5 ug/ml after 72 hrs by flow cytometry (reference value: 6.4%). The class given is functional.
A short description of assay [24]: Cytotoxicity against human Jurkat T cells assessed as growth inhibition after 12 hrs by MTT assay. The class given is functional, cell-based.
For assay [25], the system named is K562. The assay can be described thus: Induction of cell differentiation in human K562 cells assessed as upregulation of CD14 at 50 ug/ml after 72 hrs by flow cytometry (reference value: 6.4%). The assay is classed as functional.
In assay [26] the test system is U-937. Description: Induction of apoptosis in human U937 cells assessed as procaspase 9 degradation at 6.25 to 50 ug/ml after 24 hrs by Western blot analysis. The assay is classed as functional, cell-based.
Assay [27] has as its system K562. The assay can be described thus: Induction of cell death in human K562 cells at 12.5 to 50 ug/ml after 48 hrs. The assay is classed as functional, cell-based.
Assay [28] can be described thus: Cytotoxicity against human U937 cells assessed as growth inhibition after 24 hrs by MTT assay. The class given is functional, cell-based. Conditions: U-937, 24 h.
Assay [29] in a line: Cell cycle arrest in human Jurkat T cells assessed as accumulation at sub G1 phase at 50 ug/ml after 24 hrs by propidium iodide staining based flow cytometry (reference value: 0.9%). The assay is classed as functional.
For assay [30], the system named is Jurkat. The assay can be described thus: Induction of cell death in human Jurkat T cells. The assay is classed as functional, cell-based.
Assay [31] deals with Jurkat. The assay can be described thus: Induction of apoptosis in human Jurkat T cells assessed as procaspase 9 degradation at 6.25 to 50 ug/ml after 24 hrs by Western blot analysis. The class given is functional, cell-based.
A short description of assay [32]: Cell cycle arrest in human U937 cells assessed as accumulation at sub G1 phase at 50 to 100 ug/ml after 24 hrs by propidium iodide staining based flow cytometry. The class given is functional. Conditions: U-937.
The test system of assay [33] is K562. The assay can be described thus: Induction of phagocytosis in human K562 cells at 0.1 uM preincubated for 4 to 6 days followed by addition of fluorescent latex beads measured after 2 hrs by flow cytometry. The class given is functional, cell-based.
The test system of assay [34] is U-937. Description: Induction of phagocytosis in human U937 cells at 0.1 uM measured using fluorescent latex beads after 2 hrs by flow cytometry. The assay is classed as functional, cell-based.
The test system of assay [35] is K562. Description: Induction of cell differentiation in human K562 cells assessed as upregulation of CD14 at 0.1 uM after 72 hrs by flow cytometry (reference value: 6.4%). The assay is classed as functional.
The nature of assay [36]: Induction of cell differentiation in human U937 cells assessed as upregulation of CD14 at 0.1 uM after 72 hrs by flow cytometry (reference value: 4.3%). The assay is classed as functional, cell-based. Conditions: U-937.
The nature of assay [37]: Induction of cell differentiation in human U937 cells assessed as upregulation of CD68 at 0.1 uM after 72 hrs by flow cytometry (reference value: 5.9%). The assay is classed as functional, cell-based. Conditions: U-937.

In brackets after ≈: the same amount, converted by molar mass. Activity calls are given as the source filed them. The calls are words filed in the database; no cut-off is given here. Bounds are passed on as bounds.

`CC[C@@]1(O)C(=O)OCc2c1cc1n(c2=O)Cc2cc3ccccc3nc2-1`: the result (in the assay with K562 [1]; in assay [2]; in the assay with K562 [3]; in the assay on U-937 [4]) was inactive.

As usually defined, the IC50 is the point on the concentration scale where inhibition reaches its midpoint. `C=C1CCC[C@]2(C)C=C3OC(=O)C(C)=C3C[C@@H]12` [ATRACTYLENOLIDE I]: the Activity in the assay on U-937 [5] amounted to 50%; in assay [9], 84.3%; in assay [10], 25.6%; in assay [11] it was 53.3%; in [13], 7.5%; in assay [19], 20.3%. The Activity is >50% with K562 [21]; 13.4% in the assay on K562 [23]; 18.1% in the assay with K562 [25]; 32.3% in assay [29]; > 50% in assay [32]. Further, the IC50 in [6] stood at 4.23 µg/mL (≈ 18.4 µM); in [14] it was 37.6 µg/mL (≈ 163 µM); in assay [17], 24.4 µg/mL (≈ 106 µM); in assay [24], 44.7 µg/mL (≈ 194 µM); in [28], 14.9 µg/mL (≈ 64.7 µM). Also, the outcome in the assay with U-937 [7], in the assay on Jurkat [8], with Jurkat [12], with U-937 [15], with U-937 [16] and with Jurkat [18] was Active. In addition, the result in the assay with U-937 [20], in the assay on U-937 [26], in the assay on K562 [27], with Jurkat [30] and with Jurkat [31] was Active. Besides, in the assay on K562 [22], the “growth inhibition (GI)” value is “Active”.

With `CCCCCCCCCCCCCC(=O)O[C@@H]1[C@@H](C)[C@@]2(O)[C@@H](C=C(CO)C[C@]3(O)C(=O)C(C)=C[C@@H]23)[C@@H]2C(C)(C)[C@]12OC(C)=O` [PHORBOL MYRISTATE ACETATE], the result in the assay with K562 [33] and with U-937 [34] was Active. The Activity in the assay with K562 [35] is 38.1%; in assay [36], 25%; in assay [37] it was 39.2%.
